Experimental data taken from PubChem BioAssay (NCI).
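Test compounds were applied to cells in 96-well plates for 48 hours at 5 doses. Definition used: TGI = concentration required for complete inhibition of growth.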

Key:
Assay in all cases: NCI anticancer screen, dose series, 48 h
[1] = tested on: EKVX NSCLC
[2] = tested on: UO-31 renal
[3] = tested on: HT29 colon
[4] = tested on: M19-MEL melanoma
[5] = tested on: ACHN renal
[6] = tested on: SK-MEL-28 melanoma
[7] = tested on: NCI-H522 lung
[8] = tested on: M14 melanoma
[9] = tested on: DLD-1 colon
[10] = tested on: HCT-15 colon
[11] = tested on: A549 NSCLC
[12] = tested on: SR leukemia
[13] = tested on: SF-295 CNS
[14] = tested on: U251 CNS
[15] = tested on: SF-539 CNS
[16] = tested on: XF 498 CNS
[17] = tested on: DMS 114 small cell lung
[18] = tested on: LXFL 529 NSCLC
[19] = tested on: SK-OV-3 ovarian
[20] = tested on: MALME-3M melanoma
[21] = tested on: RXF 393 renal
[22] = tested on: HOP-92 NSCLC
[23] = tested on: HCC-2998 colon
[24] = tested on: CCRF-CEM leukemia
[25] = tested on: MOLT-4 leukemia
[26] = tested on: IGROV1 ovarian
[27] = tested on: SW-620 colon
[28] = tested on: NCI-H23 lung
[29] = tested on: SK-MEL-2 melanoma
[30] = tested on: TK-10 renal
[31] = tested on: K-562 leukemia
[32] = tested on: SNB-78 CNS
[33] = tested on: OVCAR-5 ovarian
[34] = tested on: 786-0 renal
[35] = tested on: HL-60(TB) leukemia
[36] = tested on: KM12 colon
[37] = tested on: OVCAR-8 ovarian
[38] = tested on: CAKI-1 renal
[39] = tested on: SK-MEL-5 melanoma
[40] = tested on: OVCAR-3 ovarian
[41] = tested on: KM20L2 colon
[42] = tested on: SF-268 CNS
[43] = tested on: SN12C renal
[44] = tested on: SNB-19 CNS
[45] = tested on: UACC-62 melanoma
[46] = tested on: OVCAR-4 ovarian
[47] = tested on: DMS 273 small cell lung
[48] = tested on: HOP-62 NSCLC
[49] = tested on: UACC-257 melanoma
[50] = tested on: SNB-75 CNS
[51] = tested on: A498 renal
[52] = tested on: NCI-H226 lung
[53] = tested on: NCI-H460 lung
[54] = tested on: COLO 205 colon
[55] = tested on: HOP-18 NSCLC
[56] = tested on: HCT-116 colon

O=C(N/C(=C\c1ccc([N+](=O)[O-])cc1)c1nc2ccc(Cl)cc2[nH]1)c1ccccc1
TGI [1]: 74.6 µM | TGI [2]: 33.5 µM | TGI [3]: 43.9 µM | TGI [4]: > 100 µM | TGI [5]: 66.8 µM | TGI [6]: 83.7 µM | TGI [7]: 27.8 µM | TGI [8]: 31.3 µM | TGI [9]: 31.3 µM | TGI [10]: 31.2 µM | TGI [11]: 74.8 µM | TGI [12]: 63.3 µM | TGI [13]: 63.8 µM | TGI [14]: 34.9 µM | TGI [15]: 40.7 µM | TGI [16]: 46.5 µM | TGI [17]: > 100 µM | TGI [18]: 70.7 µM | TGI [19]: 94.6 µM | TGI [20]: 97.9 µM | TGI [21]: 58.3 µM | TGI [22]: 34.3 µM | TGI [23]: 33.8 µM | TGI [24]: 95.1 µM | TGI [25]: 54 µM | TGI [26]: 43.8 µM | TGI [27]: 61.3 µM | TGI [28]: 44.6 µM | TGI [29]: 48.1 µM | TGI [30]: 88.7 µM | TGI [31]: 52.7 µM | TGI [32]: > 100 µM | TGI [33]: 74.5 µM | TGI [34]: 53 µM | TGI [35]: 48.5 µM | TGI [36]: 61.4 µM | TGI [37]: > 100 µM | TGI [38]: 59.6 µM | TGI [39]: 33.7 µM | TGI [40]: 52 µM | TGI [41]: 50.9 µM | TGI [42]: 42.8 µM | TGI [43]: 41.9 µM | TGI [44]: > 100 µM | TGI [45]: 50.1 µM | TGI [46]: 60.8 µM

O=C1NC(=O)C(=O)C(c2nc3ccccc3s2)C1=O
TGI [1]: > 100 µM | TGI [47]: > 100 µM | TGI [2]: > 100 µM | TGI [3]: > 100 µM | TGI [48]: > 100 µM | TGI [4]: > 100 µM | TGI [5]: > 100 µM | TGI [6]: > 100 µM | TGI [7]: > 100 µM | TGI [8]: > 100 µM | TGI [9]: > 100 µM | TGI [49]: > 100 µM | TGI [10]: > 100 µM | TGI [50]: > 100 µM | TGI [11]: > 100 µM | TGI [12]: > 100 µM | TGI [13]: > 100 µM | TGI [14]: > 100 µM | TGI [15]: > 100 µM | TGI [16]: > 100 µM | TGI [17]: > 100 µM | TGI [18]: > 100 µM | TGI [19]: > 100 µM | TGI [20]: > 100 µM | TGI [21]: > 100 µM | TGI [22]: > 100 µM | TGI [23]: > 100 µM | TGI [24]: > 100 µM | TGI [25]: > 100 µM | TGI [51]: > 100 µM | TGI [26]: > 100 µM | TGI [27]: > 100 µM | TGI [28]: > 100 µM | TGI [52]: > 100 µM | TGI [29]: > 100 µM | TGI [53]: > 100 µM | TGI [30]: > 100 µM | TGI [54]: > 100 µM | TGI [55]: > 100 µM | TGI [32]: > 100 µM | TGI [34]: > 100 µM | TGI [35]: > 100 µM | TGI [36]: > 100 µM | TGI [37]: > 100 µM | TGI [38]: > 100 µM | TGI [39]: > 100 µM | TGI [56]: > 100 µM | TGI [40]: > 100 µM | TGI [41]: > 100 µM | TGI [42]: > 100 µM | TGI [43]: > 100 µM | TGI [44]: > 100 µM | TGI [45]: > 100 µM | TGI [46]: > 100 µM
